# Results reported in ChEMBL document CHEMBL4368853 (Medchemcomm, 2018).
# pEC50, pIC50, pKd, pKi: −log10 of the molar value.
# How the values were obtained:
# [1] = target: T1, Bromodomain-containing protein 4 (Homo sapiens, UniProt O60885); experiment: Inhibition of recombinant human N-terminal His-tagged/C-terminal FLAG-tagged BRD4 bromodomain 1 (44 to 168 residues) expressed in Escherichia coli using histone peptide as substrate preincubated for 15 mins followed by substrate addition and measured after 60 mins
# MV4-11 [2] = experiment: Antiproliferative activity against human MV4-11 cells after 72 hrs by CellTiter-Glo assay; assay type: functional, cell-based; conditions: MV4-11, 72 h
# MOLM-13 [3] = experiment: Antiproliferative activity against human MOLM13 cells after 96 hrs by alamar blue assay; assay type: functional, cell-based; conditions: MOLM-13, 96 h
# [4] = target: T1, Bromodomain-containing protein 4; experiment: Inhibition of acetylated biotin-labelled RHGSGSK binding to N-terminal His6-tagged BRD4 bromodomain 1 (44 to 168 residues) (unknown origin) expressed in Escherichia coli after 1 hr by TR-FRET assay
# [5] = Induction of apoptosis in human Mino cells after 48 hrs by Annexin-V/propidium iodide staining based assay; assay type: functional, cell-based
# Z-138 = experiment: Induction of apoptosis in human ibrutinib-resistant Z138 cells after 48 hrs by Annexin-V/propidium iodide staining based assay; assay type: functional, cell-based; conditions: Z-138, 48 h
# VCaP = experiment: Antitumor activity against human VCaP cells xenografted in mouse assessed as tumor growth inhibition at 30 mg/kg, sc administered once every 3 days for 15 days; conditions: 360 h, read-out: TGI
# [6] = target: T1, Bromodomain-containing protein 4; experiment: Inhibition of biotin-labelled histone peptide binding to His-tagged BRD4 (unknown origin) expressed in Escherichia coli after 30 mins by TR-FRET assay
# [7] = target: T1, Bromodomain-containing protein 4; experiment: Inhibition of biotinylated histone H4 peptide binding to BRD4 bromodomain 1 (44 to 168 residues) (unknown origin) after 60 mins by Alphascreen method
# [8] = target: T1, Bromodomain-containing protein 4; experiment: Inhibition of biotinylated histone H4 peptide binding to BRD4 bromodomain 2 (333 to 460 residues) (unknown origin) after 60 mins by Alphascreen method
# MV4-11 [9] = experiment: Antiproliferative activity against human MV4-11 cells; assay type: functional, cell-based
# [10] = target: T1, Bromodomain-containing protein 4; experiment: Inhibition of biotin-labelled tetra-acetylated histone peptide binding to recombinant human N-terminal His6-tagged BRD4 bromodomain 1 (1 to 477 residues) (unknown origin) expressed in Escherichia coli after 1 hr by TR-FRET assay
# [11] = target: T1, Bromodomain-containing protein 4; experiment: Inhibition of His-tagged BRD4 bromodomain 1 (K57 to E168 residues) (unknown origin) by Alexa-647 conjugated probe based TR-FRET assay; assay type: single protein
# [12] = target: T1, Bromodomain-containing protein 4; experiment: Inhibition of His-tagged BRD4 bromodomain 2 (E352 to M457 residues) (unknown origin) by Alexa-647 conjugated probe based TR-FRET assay; assay type: single protein
# OPM-2 [13] = experiment: Antitumor activity against human OPM2 cells xenografted in SCID Beige mouse assessed as tumor growth inhibition at 5 mg/kg, po administered once daily for 21 days relative to control; assay type: functional; conditions: OPM-2, po, 504 h, read-out: TGI
# MX1 [14] = experiment: Antiproliferative activity against human MX1 cells after 72 hrs by CellTiter-Glo assay; assay type: functional, cell-based; conditions: MX1, 72 h
# [15] = target: T1, Bromodomain-containing protein 4; experiment: Inhibition of acetyl-histone H4 peptide binding to His6-tagged BRD4 (1 to 477 residues) (unknown origin) after 35 mins by TR-FRET assay
# CHP-212 = experiment: Antitumor activity against human CHP212 cells xenografted in Crl:CD-1-Foxn1 nude mouse assessed as tumor growth inhibition at 15 mg/kg, po administered once daily for 42 days relative to control; assay type: functional; conditions: CHP-212, po, 1008 h, read-out: TGI
# [16] = Oral bioavailability in monkey; assay type: ADME, organism-based, Macaca mulatta; conditions: rhesus monkey, in vivo
# [17] = Oral bioavailability in dog; assay type: ADME, organism-based, Canis lupus familiaris; conditions: in vivo
# [18] = target: T1, Bromodomain-containing protein 4; experiment: Inhibition of His6-tagged BRD4 (1 to 477 residues) (unknown origin) after 1 hr by Alexa fluor 488-conjugated probe based fluorescence anisotropy
# [19] = target: T1, Bromodomain-containing protein 4; experiment: Inhibition of BRD4 in human MM1S cells assessed as down regulation of c-Myc expression after 1 hr by Western blot analysis
# MOLM-13 [20] = experiment: Antiproliferative activity against human MOLM13 cells; assay type: functional, cell-based
# [21] = Oral bioavailability in rat; assay type: ADME, organism-based; conditions: in vivo
# MV4-11 [22] = experiment: Antitumor activity against human MV4-11 cells xenografted in po dosed mouse assessed as tumor regression administered once daily relative to control; assay type: functional
# [23] = target: T1, Bromodomain-containing protein 4; experiment: Inhibition of BRD4 bromodomain 2 (unknown origin)
# [24] = target: T1, Bromodomain-containing protein 4; experiment: Inhibition of BRD4 bromodomain 1 (unknown origin)
# [25] = Antiproliferative activity against human CLL cells assessed as inhibition of CpG-induced cell proliferation treated for 4 hrs followed by compound washout for 44 to 48 hrs by MTS assay; assay type: functional, cell-based
# [26] = target: T1, Bromodomain-containing protein 4; experiment: Binding affinity to human partial length BRD4 bromodomain 1 long isoform (N44 to E168 residues) expressed in bacterial expression system by BROMOscan assay
# [27] = target: T1, Bromodomain-containing protein 4
# Description: Inhibition of biotinylated Acetyl-Histone H4 (Lys5, 8, 12, 16) peptide binding to GST-tagged BRD4 bromodomain 1 (44 to 168 residues) (unknown origin) after 30 mins by Alphascreen method
# [28] = target: T1, Bromodomain-containing protein 4; experiment: Inhibition of acetylated biotin-labelled RHGSGSK binding to BRD4 bromodomain 2 (unknown origin) after 1 hr by TR-FRET assay
# [29] = target: T1, Bromodomain-containing protein 4; experiment: Inhibition of acetylated biotin-labelled RHGSGSK binding to N-terminal His6-tagged BRD4 bromodomain 1 (67 to 152 residues) (unknown origin) expressed in Escherichia coli after 1 hr by TR-FRET assay
# MDA-MB-453 [30] = experiment: Antiproliferative activity against human MDA-MB-453 cells; assay type: functional, cell-based
# MDA-MB-453 [31] = experiment: Antitumor activity against human MDA-MB-453 cells xenografted in SCID mouse assessed as tumor growth inhibition at 5 mg/kg, iv; conditions: MDA-MB-453, iv, read-out: TGI
# OPM-2 [32] = experiment: Antitumor activity against human OPM2 cells xenografted in SCID Beige mouse assessed as tumor growth inhibition at 2.5 mg/kg, po administered once daily for 21 days relative to control; assay type: functional; conditions: OPM-2, po, 504 h, read-out: TGI
# [33] = target: T1, Bromodomain-containing protein 4; experiment: Binding affinity to BRD4 bromodomain 1 (unknown origin) by isothermal titration calorimetry
# HL-60 = experiment: Growth inhibition of human HL60 cells at 10 uM after 48 hrs by sulforhodamine B assay; assay type: functional; conditions: HL-60, 48 h, read-out: GI
# [34] = target: Bromodomain-containing protein 4 (Homo sapiens, UniProt O60885, Y97A); experiment: Inhibition of recombinant human N-terminal His6-tagged BRD4 Y97A mutant (1 to 477 residues) expressed in Escherichia coli after 30 mins by Alexa Fluor647 conjugated probe based TR-FRET assay
# [35] = target: T1, Bromodomain-containing protein 4; experiment: Inhibition of biotinylated Acetyl-Histone H4 (Lys5, 8, […], […]) peptide binding to GST-tagged BRD4 bromodomain 2 (333 to 460 residues) (unknown origin) after 30 mins by Alphascreen method
# MX1 [36] = experiment: Antiproliferative activity against human MX1 cells; assay type: functional, cell-based
compound,measurement,setting,value
CC[C@@H]1C(=O)Nc2ccc(-c3c(C)noc3C)cc2N1Cc1ccccc1,pIC50,[1],7.15
same,pIC50,MV4-11 [2],6.59
Cc1nnc(C[C@@H]2N=C(c3ccc(Cl)cc3)c3ccccc3-n3c(C)nnc32)o1,pEC50,MOLM-13 [3],6.85
same,pIC50,[4],7.70
Cc1ncsc1-c1ccc([C@H](C)NC(=O)[C@@H]2C[C@@H](O)CN2C(=O)[C@@H](NC(=O)COCCCOCCNC(=O)C[C@@H]2N=C(c3ccc(Cl)cc3)c3c(sc(C)c3C)-n3c(C)nnc32)C(C)(C)C)cc1,pIC50,[5],7.77
same,pIC50,Z-138,6.85
same,inhibition in vivo at 30 mg/kg,VCaP,60%
COc1ccc2c(ncc3nc(C4CCOCC4)n([C@H](C)COC(F)F)c32)c1-c1c(C)noc1C,pIC50,[6],7.68 to 8.00
CC(=O)N1c2ccc(-c3ccc(-c4cnn(C5CC5)c4)c(OC[C@H]4CC4(F)F)c3)cc2CC[C@H]1C,pIC50,[7],> 7.00
same,pIC50,[8],> 7.30
Cc1noc(C)c1-c1ccc2c(c1)C(C1CCCC1)(N1CCC[C@H](N)C1)C(=O)N2 (stereo not given in full),pIC50,MV4-11 [9],7.47
same,pIC50,[10],8.10
Cn1cc2c3c(c[nH]c(=O)c31)CN(c1ccc(F)cc1F)c1ccc(CS(C)(=O)=O)cc1-2,pIC50,[11],8.74
same,pIC50,[12],8.70
same,inhibition in vivo at 5 mg/kg,OPM-2 [13],81%
same,pEC50,MX1 [14],7.80
COc1ccc2c(ncc3nc(N4CCOCC4)n([C@H](C)COC(F)F)c32)c1-c1c(C)noc1C,pIC50,[6],8.00
CC(=O)N1CC(n2cc(C3CC3)c3c2C(c2ccc(Cl)cc2)N(c2cc(C)c4nnn(C)c4n2)C3=O)C1 (stereo not given),pIC50,[15],> 7.96
CC(=O)N1c2ccc(-c3ccc(C(=O)O)cc3)cc2[C@H](Nc2ccc(Cl)cc2)C[C@@H]1C,inhibition in vivo at 15 mg/kg,CHP-212,82%
same,bioavailability,[16],100%
same,bioavailability,[17],80%
COc1cnc2c(ncc3[nH]c(=O)n(Cc4ccccc4)c32)c1-c1c(C)noc1C,pIC50,[18],6.50
COc1nnc2ccc(N3CCC(c4ccc(OCCN5CCN(C)C(=O)[C@H]5C)cc4)CC3)nn12 [AZD-5153],pIC50,[19],8.27
COc1ccc2c([nH]c3nc(C)nc(-c4ccnc5ccccc45)c32)c1-c1c(C)noc1C,pIC50,MOLM-13 [20],7.28
same,bioavailability,[21],93%
same,pIC50,MV4-11 [9],7.59
same,Activity,MV4-11 [22],>80%
same,pKi,[23],8.85
same,pKi,[24],8.09
Cc1noc(C)c1-c1cnc2c(-c3ccc(C(=O)O)cc3)cn([C@@H](C)c3ccccn3)c2c1 [PLX-51107],pIC50,[25],5.00 to 6.81
COc1cnc2c(ncc3[nH]c(=O)n(Cc4ccccc4OC(F)(F)F)c32)c1-c1c(C)noc1C,pIC50,[18],6.80
Cc1sc2c(c1C)C(c1ccc(Cl)cc1)=N[C@@H](CC(=O)OCCCCCCO)c1nnc(C)n1-2,pIC50,[26],9.37
CCN1C(=O)C(C)(C)c2cc3nc(-c4cc(C)c(=O)n(C)c4)n([C@@H](C)c4ccccc4)c3cc21,pIC50,[27],8.89
C[C@@H]1C(=O)N(C)c2ccc(-c3ccc(Nc4cccc(S(=O)(=O)N(C)C)c4)cc3)nc2N1C1CCN(C)CC1,pIC50,[28],7.37
same,pIC50,[29],7.70
CCn1nc(C2CC2)cc1Nc1nc(C(=O)NCCCOCCOCCOCCCNc2cccc3c2CN(C2CCC(=O)NC2=O)C3=O)nc2[nH]c3cc(-c4c(C)noc4C)c(OC)cc3c12 (stereo not given),pIC50,MDA-MB-453 [30],> 8.00
same,IC90,MDA-MB-453 [30],< 100 nM
same,inhibition in vivo at 5 mg/kg,MDA-MB-453 [31],85%
Cn1cc2c3c(c[nH]c(=O)c31)CN(c1ccccn1)c1ccc(CS(C)(=O)=O)cc1-2,inhibition in vivo at 2.5 mg/kg,OPM-2 [32],79%
same,pIC50,[11],8.96
same,pIC50,[12],8.68
same,pEC50,MX1 [14],7.80
Cc1nn(C2CC2)c2c1[C@@H](c1ccc(Cl)cc1)N(c1cc(C)c3nnc(C)n3n1)C2=O,pIC50,[15],> 7.96
CCc1c(C(=O)Nc2cc(S(=O)(=O)N(CC)CC)ccc2O)[nH]c(C)c1C(C)=O,pKd,[33],6.63
same,inhibition of growth at 10 µM,HL-60,65%
COc1ccc2c(ncc3nc(C4CCC(F)(F)CC4)n([C@H](C)COC(F)F)c32)c1-c1c(C)noc1C,pIC50,[6],7.68 to 8.00
CC(=O)N1c2ccc(-c3ccc(C#N)cc3)cc2[C@H](Nc2ncccc2F)[C@@H](C)[C@@H]1C1CC1,pIC50,[34],> 7.00
CCS(=O)(=O)Nc1ccc(Oc2ccc(F)cc2F)c(-c2cn(C)c(=O)c3[nH]c(C#CCN(C)C)cc23)c1,pKi,[35],8.48
same,pEC50,MX1 [36],8.03
same,pKi,[27],8.89
